Measured values: publication PMC8119466, “A screen of FDA-approved drugs identifies inhibitors of protein tyrosine phosphatase 4A3 (PTP4A3 or PRL-3)” (Scientific Reports, 2021)
Counter-ions that a name gives are not always drawn. Like-named read-outs stand apart in the source and are kept apart here.

What was measured:
Format in all cases: biochemical
recombinant PRL-3 = biological target: T1, recombinant PRL-3 (Homo sapiens, UniProt O75365); experiment: In vitro phosphatase assay (DiFMUP hydrolysis), PRL-3; note: test concentration or dose not given here
T1 construct: 6xHis (N, cleaved yes); made in house; host or cells: E. coli One Shot BL21 Star
T1 sequence (O75365 whole entry): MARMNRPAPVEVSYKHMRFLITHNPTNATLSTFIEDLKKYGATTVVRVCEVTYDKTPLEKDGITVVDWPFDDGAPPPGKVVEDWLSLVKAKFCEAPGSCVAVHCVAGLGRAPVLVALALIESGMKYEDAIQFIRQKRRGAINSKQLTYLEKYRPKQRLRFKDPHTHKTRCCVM

recombinant PRL-2 = biological target: T2, recombinant PRL-2 (Homo sapiens, UniProt Q12974); experiment: In vitro phosphatase assay (DiFMUP hydrolysis), PRL-2;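 note: PRL-2 activity read as DiFMUP hydrolysis after 20 min at room temperature with drug, enzyme first pre-reduced at 4 °C for 20 min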
T2 construct: 6xHis (N, cleaved yes); made in house; host or cells: E. coli One Shot BL21 Star
T2 sequence (Q12974 1-167): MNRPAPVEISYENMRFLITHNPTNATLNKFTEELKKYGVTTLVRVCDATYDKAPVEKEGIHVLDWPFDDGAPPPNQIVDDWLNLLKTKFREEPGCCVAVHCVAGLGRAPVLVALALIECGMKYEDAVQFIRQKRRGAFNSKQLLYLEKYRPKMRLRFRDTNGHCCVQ

recombinant PRL-1 = biological target: T3, recombinant PRL-1 (Homo sapiens, UniProt Q93096); experiment: In vitro phosphatase assay (DiFMUP hydrolysis), PRL-1; note: test concentration or dose not given here
T3 construct: 6xHis (N, cleaved yes); made in house; host or cells: E. coli One Shot BL21 Star
T3 sequence (Q93096 1-173): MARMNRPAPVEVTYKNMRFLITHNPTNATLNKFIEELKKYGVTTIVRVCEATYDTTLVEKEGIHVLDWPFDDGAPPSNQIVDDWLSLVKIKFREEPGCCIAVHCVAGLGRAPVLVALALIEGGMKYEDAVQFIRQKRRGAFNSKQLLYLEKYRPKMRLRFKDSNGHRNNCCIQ

[1] = FDA-approved drug screen, compared to DMSO
[2] = FDA-approved drug screen, activity compared to DMSO

| Molecule | % Phosphatase Activity (compared to DMSO) PRL-3 (recombinant PRL-3; [1]) [%] | % Phosphatase Activity (compared to DMSO) PRL-2 (recombinant PRL-2; [1]) [%] | % Phosphatase Activity (compared to DMSO) PRL-1 (recombinant PRL-1; [1]) [%] | other results |
| --- | --- | --- | --- | --- |
| C[N+]1(C)CCCC(OC(=O)C(O)(c2ccccc2)c2ccccc2)C1 (stereo not drawn) [Mepenzolate Bromide] | 80 | 93 | 93 |  |
| O=C(CCCN1CCN(c2ccccn2)CC1)c1ccc(F)cc1 [Azaperone] | 88 | 96 | 96 |  |
| NC(=O)CC[C@H](N)C(=O)O [L-Glutamine] | 87 | 77 | 94 |  |
| CCCC(=O)Nc1ccc(OCC(O)CNC(C)C)c(C(C)=O)c1 (stereo not drawn) [Acebutolol HCl] | 86 | 123 | 105 |  |
| Cc1cccc(C)c1N=C1NCCCS1 [Xylazine HCl] |  |  |  | % Phosphatase Activity (compared to DMSO) PRL-3 (recombinant PRL-3): 91%; % Phosphatase Activity (compared to DMSO) PRL-2 (recombinant PRL-2): 112%; % Phosphatase Activity (compared to DMSO) PRL-1 (recombinant PRL-1): 110% |
| C[C@@H]1CN(c2c(F)c(N)c3c(=O)c(C(=O)O)cn(C4CC4)c3c2F)C[C@H](C)N1 [Sparfloxacin] |  |  |  | % Phosphatase Activity (compared to DMSO) PRL-3 (recombinant PRL-3; [2]): 121%; % Phosphatase Activity (compared to DMSO) PRL-2 (recombinant PRL-2; [2]): 98%; % Phosphatase Activity (compared to DMSO) PRL-1 (recombinant PRL-1; [2]): 87% |
| Cc1onc(-c2c(Cl)cccc2Cl)c1C(=O)N[C@@H]1C(=O)N2[C@@H]1SC(C)(C)[C@@H]2C(=O)O [Dicloxacillin Sodium] | 85 | 121 | 106 |  |
| CC1=C(C(=O)O)N2C(=O)[C@@H](NC(=O)[C@H](N)C3=CCC=CC3)[C@H]2SC1 [Cefradine] | 102 | 76 | 95 |  |
| O=C(O)c1cc(=O)[nH]c(=O)[nH]1.O=C(O)c1cc(=O)[nH]c(=O)[nH]1 [Orotic acid (6-Carboxyuracil)] | 95 | 109 | 106 |  |
| COc1cc2nc(N3CCN(C(=O)c4ccco4)CC3)nc(N)c2cc1OC [Prazosin HCl] | 263 | 435 | 460 |  |
| CCN1CCN(C(=O)N[C@@H](C(=O)N[C@@H]2C(=O)N3C(C(=O)O)=C(CSc4nnnn4C)CS[C@H]23)c2ccc(O)cc2)C(=O)C1=O [Cefoperazone] | 89 | 94 | 100 |  |
| CC(C)(C)C(=O)OCOP(=O)(COCCn1cnc2c(N)ncnc21)OCOC(=O)C(C)(C)C [Adefovir Dipivoxil] | 74 | 88 | 92 |  |
| CC12CCC(CC1=O)C2(C)C (stereo not drawn) [(+)-Camphor] | 104 | 132 | 116 |  |
| Nc1ccc(S(=O)(=O)Nc2ccccn2)cc1 [Sulfapyridine] |  |  |  | % Phosphatase Activity (compared to DMSO) PRL-3 (recombinant PRL-3; [2]): 84%; % Phosphatase Activity (compared to DMSO) PRL-2 (recombinant PRL-2; [2]): 113%; % Phosphatase Activity (compared to DMSO) PRL-1 (recombinant PRL-1; [2]): 106% |
| CN1C2CCCC1CC(NC(=O)c1nn(C)c3ccccc13)C2 (stereo not drawn) [Granisetron HCl] | 93 | 74 | 86 |  |
| O=C(O)CCCCCCCC(=O)O [Azelaic acid] | 95 | 98 | 94 |  |
| Cl.NCCCC(N)(C(=O)O)C(F)F.O (stereo not drawn) [Eflornithine hydrochloride hydrate] | 103 | 84 | 91 |  |
| Cl.NCC1(CC(=O)O)CCCCC1 [Gabapentin HCl] | 85 | 87 | 99 |  |
| CCCN[C@H]1CCc2nc(N)sc2C1 [Pramipexole] |  |  |  | % Phosphatase Activity (compared to DMSO) PRL-3 (recombinant PRL-3): 72%; % Phosphatase Activity (compared to DMSO) PRL-2 (recombinant PRL-2): 106%; % Phosphatase Activity (compared to DMSO) PRL-1 (recombinant PRL-1): 109% |
| CCOC(=O)OC(C)OC1=C(C(=O)Nc2ccccn2)N(C)S(=O)(=O)c2ccccc21 (stereo not drawn) [Ampiroxicam] | 88 | 114 | 114 |  |
| CCOC(=O)C1=C[C@@H](OC(CC)CC)[C@H](NC(C)=O)[C@@H](N)C1 [Oseltamivir Phosphate] | 94 | 102 | 91 |  |

| Molecule | % Phosphatase Activity (compared to DMSO) PRL-3 (recombinant PRL-3; [1]) [%] | % Phosphatase Activity (compared to DMSO) PRL-2 (recombinant PRL-2; [1]) [%] | % Phosphatase Activity (compared to DMSO) PRL-1 (recombinant PRL-1; [1]) [%] | other results |
| --- | --- | --- | --- | --- |
| CN1CCN(C(c2ccccc2)c2ccccc2)CC1.Cl.Cl [Cyclizine 2HCl] | 69 | 116 | 94 |  |
| Bacitracin | 82 | 94 | 96 |  |
| CCCc1cc(C(N)=S)ccn1 [Protionamide] | 97 | 101 | 100 |  |
| O=C(Nc1ccccc1)OCC(CN1CCCCC1)OC(=O)Nc1ccccc1 (stereo not drawn) [Diperodon HCl] | 103 | 98 | 99 |  |
| CCCS(=O)(=O)Nc1ccc(F)c(C(=O)c2c[nH]c3ncc(-c4ccc(Cl)cc4)cc23)c1F [Vemurafenib (PLX4032, RG7204)] |  |  |  | % Phosphatase Activity (compared to DMSO) PRL-3 (recombinant PRL-3; [2]): 80%; % Phosphatase Activity (compared to DMSO) PRL-2 (recombinant PRL-2; [2]): 89%; % Phosphatase Activity (compared to DMSO) PRL-1 (recombinant PRL-1; [2]): 89% |
| O=S(=O)(O)c1cc(O)ccc1O [Ethamsylate] | 71 | 99 | 96 |  |
| COc1cc(NS(=O)(=O)c2ccc(N)cc2)nc(OC)n1 [Sulphadimethoxine] |  |  |  | % Phosphatase Activity (compared to DMSO) PRL-3 (recombinant PRL-3; [2]): 83%; % Phosphatase Activity (compared to DMSO) PRL-2 (recombinant PRL-2; [2]): 94%; % Phosphatase Activity (compared to DMSO) PRL-1 (recombinant PRL-1; [2]): 92% |
| Cc1ccc2c(Cl)cc(Cl)c(O)c2n1 [Chlorquinaldol] | 71 | 102 | 88 |  |
| Cc1ccc(S(=O)(=O)Nc2nc3ccccc3nc2Nc2ccc3nsnc3c2)cc1 [Pilaralisib (XL147)] | 98 | 65 | 94 |  |
| O=C(O[C@H]1CN2CCC1CC2)N1CCc2ccccc2[C@@H]1c1ccccc1 [Solifenacin succinate] |  |  |  | % Phosphatase Activity (compared to DMSO) PRL-3 (recombinant PRL-3; [2]): 114%; % Phosphatase Activity (compared to DMSO) PRL-2 (recombinant PRL-2; [2]): 99%; % Phosphatase Activity (compared to DMSO) PRL-1 (recombinant PRL-1; [2]): 88% |
| c1ccc(CN(CC2=NCCN2)c2ccccc2)cc1 [Antazoline HCl] | 76 | 104 | 91 |  |
| Nc1nc(Cl)nc2c1ncn2[C@H]1C[C@H](O)[C@@H](CO)O1 [Cladribine] | 82 | 93 | 98 |  |
| CN1CCC(=C2c3ccccc3CCc3sccc32)CC1.O=C(O)CC(O)C(=O)O [Pizotifen Malate] | 95 | 109 | 114 |  |
| CNCC(=O)c1ccc(O)c(O)c1.Cl [Adrenalone HCl] | 72 | 91 | 91 |  |
| CCOC(=O)[C@H](CCc1ccccc1)N[C@H]1CCCN2CCC[C@@H](C(=O)O)N2C1=O [Cilazapril Monohydrate] | 73 | 111 | 91 |  |
| CCn1cc(C(=O)O)c(=O)c2cc(F)c(N3CCNCC3)cc21 [Norfloxacin] | 111 | 130 | 131 |  |
| C[C@@H]1C[C@H]2[C@@H]3CCC4=CC(=O)C=C[C@]4(C)[C@@]3(Cl)[C@@H](O)C[C@]2(C)[C@@]1(OC(=O)c1ccco1)C(=O)CCl [Mometasone furoate] | 77 | 87 | 85 |  |
| Cc1ccc(C)c(OCCCC(C)(C)C(=O)O)c1 [Gemfibrozil] | 76 | 95 | 93 |  |
| CN(C)CC(c1ccc(O)cc1)C1(O)CCCCC1 (stereo not drawn) [Desvenlafaxine Succinate] | 80 | 103 | 106 |  |
| CC1=NN(c2ccc(C)c(C)c2)C(=O)/C1=N\Nc1cccc(-c2cccc(C(=O)O)c2)c1O [Eltrombopag Olamine] | 35 | 66 | 56 |  |
